Organism: Rattus norvegicus
Test: Open TG-GATES - Regimen: Daily Repeat
Assay type: toxicity, organism-based, Sprague-Dawley
Set-up: regimen Daily Repeat, gender Male, age 6 weeks
Settings: in vivo, po, 300 mg/kg, route gavage, dose level High; for APTT / Bas / Eos / Fbg / Hb / Ht / Lym / MCH / MCHC / MCV / Mono / Neu / PT / Plat / RBC / Ret / WBC: tissue Blood; for KIDNEY_L / KIDNEY_R / KIDNEY_TOTAL: tissue Kidney; for LIVER: tissue Liver; for A/G / ALP / ALT / AST / BUN / CRE / Ca / Cl / DBIL / GLC / IP / K / LDH / Na / PL / RALB / TBIL / TC / TG / TP / gamma-GTP: tissue Plasma

C[C@]12CCC(=O)C=C1CC[C@@H]1[C@@H]2CC[C@@]2(C)[C@H]1CC[C@]2(C)O [METHYLTESTOSTERONE]
TERMINAL_BW (72 h, time 3 day): 233.2 g | APTT (72 h, time 3 day): 15.7 s | Bas (72 h, time 3 day): 0% | Eos (72 h, time 3 day): 1% | Fbg (72 h, time 3 day): 295.4 mg/dL | Hb (72 h, time 3 day): 13.8 g/dL | Ht (72 h, time 3 day): 39.9% | Lym (72 h, time 3 day): 74.8% | MCH (72 h, time 3 day): 21.8 pg | MCHC (72 h, time 3 day): 34.6% | MCV (72 h, time 3 day): 63.2 fL | Mono (72 h, time 3 day): 2.8% | Neu (72 h, time 3 day): 21% | PT (72 h, time 3 day): 13.4 s | Plat (72 h, time 3 day): 115.4 x10_4/uL | RBC (72 h, time 3 day): 630.6 x10_4/ul | Ret (72 h, time 3 day): 6.1% | WBC (72 h, time 3 day): 71.4 x10_2/uL | KIDNEY_L (72 h, time 3 day): 1.1 g | KIDNEY_R (72 h, time 3 day): 1.1 g | KIDNEY_TOTAL (72 h, time 3 day): 2.2 g | LIVER (72 h, time 3 day): 12.3 g | A/G (72 h, time 3 day): 0.9 | ALP (72 h, time 3 day): 1988.4 IU/L | ALT (72 h, time 3 day): 52.4 IU/L | AST (72 h, time 3 day): 72 IU/L | BUN (72 h, time 3 day): 14.4 mg/dL | CRE (72 h, time 3 day): 0.2 mg/dL | Ca (72 h, time 3 day): 11 mg/dL | Cl (72 h, time 3 day): 106.2 meq/L | DBIL (72 h, time 3 day): 0.028 mg/dL | GLC (72 h, time 3 day): 179 mg/dL | IP (72 h, time 3 day): 8.4 mg/dL | K (72 h, time 3 day): 4.2 meq/L | LDH (72 h, time 3 day): 129.6 IU/L | Na (72 h, time 3 day): 143.2 meq/L | PL (72 h, time 3 day): 110.4 mg/dL | RALB (72 h, time 3 day): 2.8 g/dL | TBIL (72 h, time 3 day): 0.024 mg/dL | TC (72 h, time 3 day): 37.8 mg/dL | TG (72 h, time 3 day): 189 mg/dL | TP (72 h, time 3 day): 5.8 g/dL | gamma-GTP (72 h, time 3 day): 1.2 IU/L | TERMINAL_BW ([…], time 7 day): 255 g | TERMINAL_BW ([…], time 14 day): 299.6 g | TERMINAL_BW ([…], time 28 day): 358.4 g | APTT ([…], time 7 day): 19.5 s | Bas ([…], time 7 day): 0% | Eos ([…], time 7 day): 0.2% | Fbg ([…], time 7 day): 345.8 mg/dL | Hb ([…], time 7 day): 14 g/dL | Ht ([…], time 7 day): 40.4% | Lym ([…], time 7 day): 80% | MCH ([…], time 7 day): 21.6 pg | MCHC ([…], time 7 day): 34.6% | MCV ([…], time 7 day): 62.2 fL | Mono ([…], time 7 day): 3.2% | Neu ([…], time 7 day): 15.4% | PT ([…], time 7 day): 13.3 s | Plat ([…], time 7 day): 121 x10_4/uL | RBC ([…], time 7 day): 650.2 x10_4/ul | Ret ([…], time 7 day): 5.3% | WBC ([…], time 7 day): 65.9 x10_2/uL | APTT ([…], time 14 day): 22.8 s | Bas ([…], time 14 day): 0% | Eos ([…], time 14 day): 0% | Fbg ([…], time 14 day): 327.8 mg/dL | Hb ([…], time 14 day): 15.3 g/dL | Ht ([…], time 14 day): 43.7% | Lym ([…], time 14 day): 70.4% | MCH ([…], time 14 day): 20.5 pg | MCHC ([…], time 14 day): 34.9% | MCV ([…], time 14 day): 58.8 fL | Mono ([…], time 14 day): 3.4% | Neu ([…], time 14 day): 25.2% | PT ([…], time 14 day): 13.5 s | Plat ([…], time 14 day): 118.5 x10_4/uL | RBC ([…], time 14 day): 744.4 x10_4/ul | Ret ([…], time 14 day): 3.2% | WBC ([…], time 14 day): 93.6 x10_2/uL | APTT ([…], time 28 day): 19.9 s | Bas ([…], time 28 day): 0% | Eos ([…], time 28 day): 1% | Fbg ([…], time 28 day): 325.4 mg/dL | Hb ([…], time 28 day): 15.8 g/dL | Ht ([…], time 28 day): 44.3% | Lym ([…], time 28 day): 77.8% | MCH ([…], time 28 day): 19.3 pg | MCHC ([…], time 28 day): 35.7% | MCV ([…], time 28 day): 54.1 fL | Mono ([…], time 28 day): 3.2% | Neu ([…], time 28 day): 17.4% | PT ([…], time 28 day): 13.6 s | Plat ([…], time 28 day): 111.9 x10_4/uL | RBC ([…], time 28 day): 819 x10_4/ul | Ret ([…], time 28 day): 2.6% | WBC ([…], time 28 day): 81.2 x10_2/uL | KIDNEY_L ([…], time 7 day): 1.2 g | KIDNEY_R ([…], time 7 day): 1.2 g | KIDNEY_TOTAL ([…], time 7 day): 2.4 g | KIDNEY_L ([…], time 14 day): 1.4 g | KIDNEY_R ([…], time 14 day): 1.4 g | KIDNEY_TOTAL ([…], time 14 day): 2.8 g | KIDNEY_L ([…], time 28 day): 1.8 g | KIDNEY_R ([…], time 28 day): 1.8 g | KIDNEY_TOTAL ([…], time 28 day): 3.7 g | LIVER ([…], time 7 day): 13.5 g | LIVER ([…], time 14 day): 15.3 g | LIVER ([…], time 28 day): 18.6 g | A/G ([…], time 7 day): 0.9 | ALP ([…], time 7 day): 1693.8 IU/L | ALT ([…], time 7 day): 44.4 IU/L | AST ([…], time 7 day): 63.4 IU/L | BUN ([…], time 7 day): 13.8 mg/dL | CRE ([…], time 7 day): 0.2 mg/dL | Ca ([…], time 7 day): 10.9 mg/dL | Cl ([…], time 7 day): 105 meq/L | DBIL ([…], time 7 day): 0.028 mg/dL | GLC ([…], time 7 day): 182.4 mg/dL | IP ([…], time 7 day): 7.6 mg/dL | K ([…], time 7 day): 3.8 meq/L | LDH ([…], time 7 day): 89.4 IU/L | Na ([…], time 7 day): 143.4 meq/L | PL ([…], time 7 day): 117.2 mg/dL | RALB ([…], time 7 day): 2.9 g/dL | TBIL ([…], time 7 day): 0.03 mg/dL | TC ([…], time 7 day): 38.6 mg/dL | TG ([…], time 7 day): 228.8 mg/dL | TP ([…], time 7 day): 6.2 g/dL | gamma-GTP ([…], time 7 day): 1 IU/L | A/G ([…], time 14 day): 0.8 | ALP ([…], time 14 day): 1180 IU/L | ALT ([…], time 14 day): 62 IU/L | AST ([…], time 14 day): 69.8 IU/L | BUN ([…], time 14 day): 13 mg/dL | CRE ([…], time 14 day): 0.2 mg/dL | Ca ([…], time 14 day): 10.4 mg/dL | Cl ([…], time 14 day): 105 meq/L | DBIL ([…], time 14 day): 0.022 mg/dL | GLC ([…], time 14 day): 172.6 mg/dL | IP ([…], time 14 day): 7.8 mg/dL | K ([…], time 14 day): 3.9 meq/L | LDH ([…], time 14 day): 128.8 IU/L | Na ([…], time 14 day): 143 meq/L | PL ([…], time 14 day): 139.2 mg/dL | RALB ([…], time 14 day): 2.8 g/dL | TBIL ([…], time 14 day): 0.03 mg/dL | TC ([…], time 14 day): 44 mg/dL | TG ([…], time 14 day): 191.2 mg/dL | TP ([…], time 14 day): 6.2 g/dL | gamma-GTP ([…], time 14 day): 1.8 IU/L | A/G ([…], time 28 day): 0.8 | ALP ([…], time 28 day): 1072 IU/L | ALT ([…], time 28 day): 49.8 IU/L | AST ([…], time 28 day): 60.2 IU/L | BUN ([…], time 28 day): 12.4 mg/dL | CRE ([…], time 28 day): 0.2 mg/dL | Ca ([…], time 28 day): 10.9 mg/dL | Cl ([…], time 28 day): 101.6 meq/L | DBIL ([…], time 28 day): 0.026 mg/dL | GLC ([…], time 28 day): 172 mg/dL | IP ([…], time 28 day): 6.5 mg/dL | K ([…], time 28 day): 3.4 meq/L | LDH ([…], time 28 day): 100 IU/L | Na ([…], time 28 day): 144.2 meq/L | PL ([…], time 28 day): 118.6 mg/dL | RALB ([…], time 28 day): 2.9 g/dL | TBIL ([…], time 28 day): 0.032 mg/dL | TC ([…], time 28 day): 36.2 mg/dL | TG ([…], time 28 day): 202.2 mg/dL | TP ([…], time 28 day): 6.3 g/dL | gamma-GTP ([…], time 28 day): 2.6 IU/L
